In publication PMC7111419 (European Journal of Medicinal Chemistry, 2019):
Like-named read-outs stand apart in the source and are kept apart here.

Experiments:
βGLU [1] = conditions: cited from earlier work
male Fischer rats = conditions: cited from earlier work; for reduction of aberrant crypt foci formation: 5 weeks, vs azoxymethane-controls
βGLU [2] = assay type: biochemical
newborns = conditions: cited from earlier work
male Wister rats = conditions: cited from earlier work; for tumour size: from 2 cm
bacterial βGLU [3] = conditions: cited from earlier work
[4] = tested on: whole human gut bacterial βGLU (eight bacterial isolates); conditions: cited from earlier work
E. coli βGLU [5] = conditions: cited from earlier work
rat liver βGLU = conditions: cited from earlier work
male ICR mice = conditions: cited from earlier work
male Wistar rats = conditions: cited from earlier work
bovine liver βGLU = conditions: cited from earlier work
E. coli βGLU [6] = experiment: E. coli βGLU inhibition; assay type: biochemical
3T3 cells = conditions: cited from earlier work
bacterial βGLU [7] = assay type: biochemical
[8] = cited from earlier work
BALB/cJ mice = conditions: 10 μg twice daily with 50 mg/kg CPT-11 once daily; cited from earlier work
[9] = […] test concentration, US 7,294,330 B2

O=C(Cn1c(-c2ccccn2)nc2ccccc21)c1ccc(F)cc1 [Compound 4-F]
IC50 (βGLU [1]): 26.3 µM

CC(=O)O[C@@H]1C(=O)O[C@H]2[C@@H]1OC(=O)[C@@H]2OC(C)=O [Compound 6, 2,5-di-O-acetyl-D-glucaro-1,4:6,3-dilactone]
reduction of aberrant crypt foci formation (male Fischer rats; 0.5% in diet): over 48.6% | reduction of aberrant crypt foci formation (male Fischer rats; 2% in diet): > 55.3% | inhibition of colon carcinogenesis (male Fischer rats; post-initiation phase, 32 weeks treatment (D-GL: 2%)): over 70%

COC(=O)[C@]1(Cc2ccc(O)c(C=O)c2)OC(=O)C(O)=C1c1ccc(O)cc1 [Compound 8]
fold stronger potency than prenylated isomer (9) (βGLU [2]): 16 fold | fold superior potency compared to D-SAL (βGLU [2]): 8 fold

N[C@@H](CC(=O)O)C(=O)O [Compound 10, L-aspartic acid]
inhibition of βGLU (βGLU [1]; 100 μM): ~86% | fold more potent than D-isomer (βGLU [2]): 100 fold | transcutaneous bilirubin levels, lower than control (newborns; 6 doses, 180 mg/5 ml of water/day, first week of life): 25% | adverse effects (newborns): no adverse effects

O=c1cc(-c2ccc(O)c(O)c2)oc2cc(O)cc(O)c12 [Compound 11, Luteolin]
bacterial βGLU activity (male Wister rats; 0.1, 0.2 or 0.3 mg/kg body weight/day p.o., 30 weeks, vs DMH-controls): significantly reduced | reduction in tumour incidence (male Wister rats): up to 90% | tumour size (male Wister rats; initiation stage): 0.25 cm | tumour size (male Wister rats; post-initiation stage): 0.50 cm

O=c1c(O)c(-c2ccc(O)cc2)oc2cc(O)cc(O)c12 [Compound 19, Kaempferol]
IC50 (bacterial βGLU [3]): 36.5 µM

CC(C)=CC[C@]12Oc3cc(O)c([C@H]4C=C(C)C[C@H](c5ccc(O)cc5O)[C@H]4C(=O)c4ccc(O)cc4O)c(O)c3C(=O)[C@@]1(O)Oc1cc(O)ccc12 [Compound 20, Sanggenon C]
IC50 [4]: 12.5 µM | inhibition [4]: > 70%

CC(C)=CCc1c(-c2ccc(O)cc2O)oc2c([C@H]3C=C(C)C[C@@H](c4ccc(O)cc4O)[C@@H]3C(=O)c3ccc(O)cc3O)c(O)cc(O)c2c1=O [Compound 21, Kuwanon G]
IC50 [4]: 7.4 µM | inhibition [4]: > 70%

C=CCc1ccc(O)c(OC)c1 [Compound 39, eugenol]
IC50 (βGLU [1]): 616.68 µg/mL

O=c1c2cc(O)c(O)cc2oc2cc(O)c([C@@H]3O[C@H](CO)[C@@H](O)[C@H](O)[C@H]3O)c(O)c12 [Compound 40, mangiferin]
IC50 (βGLU [1]): 38 µM

O=c1c(-c2ccc(O)cc2)coc2cc(O)ccc12 [Compound 41, daidzein]
IC50 (E. coli βGLU [5]): 410 µg/mL | IC50 (rat liver βGLU): 500 µg/mL

COc1c(O[C@@H]2O[C@H](CO)[C@@H](O)[C@H](O)[C@H]2O)cc2occ(-c3ccc(O)cc3)c(=O)c2c1O [Compound 43, tectoridin]
hepatoprotection (male ICR mice; 100 mg/kg intraperitoneal): failure to provide desired hepatoprotection | serum AST, ALT and LDH levels relative to CCl4-treated controls (male ICR mice; 100 mg/kg oral): significantly lowering | presence in serum (male ICR mice; 250 mg/kg oral, only tectorigenin detected): absence in the serum

CC1(C)[C@@H](O)CC[C@]2(C)[C@H]3C(=O)C=C4[C@@H]5C[C@@](C)(C(=O)O)CC[C@]5(C)CC[C@@]4(C)[C@]3(C)CC[C@@H]12 [Compound 44, 18β-glycyrrhetinic acid]
IC50 (E. coli βGLU [5]): 510 µM | AST, ALT and LDH levels compared to CCl4-controls (male Wistar rats; 100 mg/kg intraperitoneal): significant reduction | IC50 (rat liver βGLU): 42.5 µM

CC1(C)[C@@H](O[C@H]2O[C@H](C(=O)O)[C@@H](O)[C@H](O)[C@H]2O[C@@H]2O[C@H](C(=O)O)[C@@H](O)[C@H](O)[C@H]2O)CC[C@]2(C)[C@H]3C(=O)C=C4[C@@H]5C[C@@](C)(C(=O)O)CC[C@]5(C)CC[C@@]4(C)[C@]3(C)CC[C@@H]12 [Compound 45, glycyrrhizinic acid]
AST, ALT and LDH levels compared to CCl4-controls (male Wistar rats; 100 mg/kg oral): significant reduction | hepatoprotection (male Wistar rats; intraperitoneal administration): did not provide hepatoprotection

C[C@]12C=C/C(=N\O)C=C1CC[C@H]1[C@@H]3[C@@H](O)C[C@](C)(O)[C@@]3(C)CC[C@@H]12 [Compound 49]
fold superior than Z-isomer (βGLU [2]): 2 fold

NC[C@@H]1C[C@@H]2[C@H](O)[C@@H](O)[C@H](O)[C@@H](C(=O)O)N2C(=O)O1 [Compound 71]
IC50 (bovine liver βGLU): 218 µM

NC[C@@H]1OC(=O)N2[C@H]1[C@H](O)[C@@H](O)[C@H](O)[C@H]2C(=O)O [Compound 73]
IC50 (bovine liver βGLU): 259 µM

COc1ccc(C[C@@H]2CCC[C@@H]3[C@H](O)[C@@H](O)[C@H](CO)N23)cc1 [Compound 74]
inhibition (E. coli βGLU [5]; 1 mM): < 50%

CCCCCCO[C@H]1C[C@](Cl)(CO)[C@@H](O)[C@H](O)[C@H]1NC(C)=O [Compound 75]
IC50 (E. coli βGLU [5]): 170 µM

O=C(O)[C@@H]1[C@@H](O)[C@H](O)[C@@]2(O)CC[C@@H]1N2 [Compound 77, uronic-noeurostegine]
selectivity for E. coli βGLU over bovine liver βGLU (E. coli βGLU [6]): 38 fold | Ki (E. coli βGLU [5]): 0.06 µM

CCCC[C@H]1NC[C@@H](O)[C@@H](O)[C@H](O)[C@H]1O [Compound 85]
IC50 (E. coli βGLU [5]): 261 µM

O=C(O)[C@H]1NC[C@H](O)[C@@H](O)[C@@H]1O [Compound 94]
selectivity for bovine liver βGLU (bovine liver βGLU): 3 fold

Oc1ccccc1-c1nc2cc(Cl)cc(Cl)c2[nH]1 [Compound 111]
fold potency vs D-SAL (βGLU [2]): 11 fold

O=C(Cn1c(-c2ccccn2)nc2ccccc21)c1ccccc1[N+](=O)[O-] [Compound 112]
IC50 (βGLU [1]): 4.06 µM

COc1ccccc1-c1nnc(-c2ccc(C(=O)NNS(=O)(=O)c3cc(Cl)c(Cl)cc3Cl)cc2)o1 [Compound 116]
IC50 (βGLU [1]): 1.4 µM

O=C(N/N=C/c1c(O)cc(O)cc1O)c1cc2cc(Cl)ccc2[nH]1 [Compound 128]
fold stronger than corresponding oxadiazole variant of compound 115 library (βGLU [2]): 3 fold

O=C(N/N=C/c1ccccc1F)c1cc2cc(Cl)ccc2[nH]1 [Compound 129]
fold stronger than corresponding oxadiazole variant of compound 115 library (βGLU [2]): 43 fold

Oc1cccc(C(c2c[nH]c3cc(Br)ccc23)c2c[nH]c3ccc(Br)cc23)c1O (stereo not shown) [Compound 133]
cytotoxicity (3T3 cells): moderate cytotoxicity

O=C(/C=C/c1ccc(O)cc1)O[C@@H]1O[C@H](Oc2cc(O)c3c(=O)cc(-c4ccc(O)cc4)oc3c2)[C@@H](O)[C@H](O)[C@H]1O [Compound 148]
cytotoxicity (3T3 cells): totally non-cytotoxic | fold potency vs D-SAL (bacterial βGLU [7]): 10 fold

CCOc1ccc(NC(=S)N(CCO)Cc2cc3cc(C)cc(C)c3[nH]c2=O)cc1 [Compound 151]
half-life [8]: < 1 h | CPT-11 induced diarrhoea (BALB/cJ mice): alleviated Irinotecan (CPT-11) induced diarrhoea

COc1ccc(-c2nc(O)c3ccccc3n2)cc1OC [Compound 160]
fold potency vs D-SAL (E. coli βGLU [6]): 76 fold

O=C1CCCCCC/C=C/CCCCCCC1 [Compound 191]
inhibition of E. coli βGLU (E. coli βGLU [5]; 0.001 wt%): 95.8% | inhibition of E. coli βGLU (E. coli βGLU [5]; 0.1 wt% in dipropylene glycol): 100%

O=S(=O)(NCc1cccc(Cl)c1)c1cc(Cl)c(Oc2cccc(N3CCNCC3)c2)s1 [Compound 193]
IC50 (bacterial βGLU [3]; US 9617.239 B2): equipotent | IC50 (bacterial βGLU [3]; US 9617.239 B2, listed as C00012): 0.02 µM

O=c1c(-c2ccc(O)cc2)coc2cc(O[C@@H]3O[C@H](CO)[C@@H](O)[C@H](O)[C@H]3O)ccc12 [daidzin]
IC50 (E. coli βGLU [5]): inactive | IC50 (rat liver βGLU): inactive

C[C@]12C=CC(=O)C=C1CC[C@@H]1[C@@H]2CC[C@@]2(C)[C@H]1CC[C@]2(C)O [dianabol, reference compound]
IC50 (βGLU [1]): inactive

O=c1c(-c2ccc(O)cc2)coc2c([C@@H]3O[C@H](CO)[C@@H](O)[C@H](O)[C@H]3O)c(O)ccc12 [puerarin]
IC50 (E. coli βGLU [5]): inactive | IC50 (rat liver βGLU): inactive

O=C([O-])[C@H](O)[C@@H](O)[C@H](O)[C@H](O)CO.O=C([O-])[C@H](O)[C@@H](O)[C@H](O)[C@H](O)CO.[Zn+2] [zinc gluconate]
inhibition of E. coli βGLU (E. coli βGLU [5]; [9]): 97%

NCC(=O)[O-].NCC(=O)[O-].[Zn+2] [zinc glycinate]
inhibition of E. coli βGLU (E. coli βGLU [5]; [9]): 99%

tectorigenin [Compound 42]
IC50 (βGLU [1]): 300 µg/mL | serum AST, ALT and LDH levels relative to CCl4-treated controls (male ICR mice; 50 mg/kg intraperitoneal pre-treatment): significantly lowering
